PMC8464850, “Sulfonium Ligands of the α7 nAChR” (Molecules, 2021)
Structures can show the parent of a compound that is named as a salt.

Experiments:
[1] = system: neuronal heteromeric receptors; experiment: Activation of neuronal heteromeric nAChR (panel); assay type: cell-based, human; conditions: all heteromeric subtypes tested
Excerpt: Concatamers were used in order to obtain heteromeric receptors with known subunit composition. The β2-6-α4 concatamer was co-expressed with monomeric α4, β2, or α5 to obtain receptors with the composition α4(3)β2(2), α4(2)β2(3), or α4(2)β2(2)α5, respectively. A concatamer of five linked subunits was used to obtain the β3α4 β2α6β2 receptors. The α3β4 receptors were formed from the co-expression of α3 and β4 subunit monomers at equal ratios. Note that the data were initially measured relative to internal ACh control responses for each oocyte (Methods). Responses were subsequently adjusted for the relative values of the ACh controls and the ACh maximum responses for each of the various subtypes, determined in previous experiments. […]
Solutions were applied from 96-well plates via disposable tips. […] The responses were calculated as both peak current amplitudes and net charge, as previously described. Data were collected at 50 Hz, filtered at 20 Hz for α7 receptors or filtered at 5 Hz for heteromeric nAChR, and analyzed by Clampfit (Molecular Devices, San Jose, CA, USA) and Excel (Microsoft, Redmond, WA, USA). Data were expressed as means ± SEM from at least four oocytes for each experiment and plotted with Kaleidagraph 4.5.2 (Abelbeck Software, Reading, PA, USA). Multi-cell averages were calculated for comparisons of complex responses. […]

α7 nAChR = target: T1, α7 nAChR (Homo sapiens, UniProt P36544); experiment: Inhibition of α7 ACh-evoked responses; assay type: cell-based; conditions: for effect on 60 µM ACh response at 1 mM: compound 1 mM co-applied with 60 µM ACh
T1 construct: expressed in transfected cells; host or cells: Xenopus laevis oocytes (injected RNA)
Method: Figure 4 Effects sulfonium compounds on α7 ACh-evoked net-charge responses. (A) Effects of the sulfonium compounds at 100 µM co-applied with 60 µM relative to responses to 60 µM ACh applied alone. Data are the averages (±SEM) from seven or eight cells under each condition. (B) Effects of select sulfonium compounds at 1 mM co-applied with 60 µM relative to responses to 60 µM ACh applied alone. Data are the averages (±SEM) from seven or eight cells under each condition. Statistical significance was determined by pairwise t-test with p values corrected for multiple comparisons; * p < 0.05, ** p < 0.001.
The sulfonium compounds that were active with TQS but produced little inhibition of ACh response at a concentration of 100 µM were tested as inhibitors of ACh response at a concentration of 1 mM (Figure 4B).
We tested S8 across a range of concentrations for its ability to inhibit 60 µM ACh responses (Figure 5A). Note that we use 60 µM as an ACh control because this concentration gives nearly maximal (93%) net-charge responses, with the time course of the responses roughly following the speed of solution exchange. […] We tested whether inhibition of α7 responses by S8 was surmountable by increasing ACh concentration, consistent with a competitive mechanism of inhibition. However, since α7 responses to concentrations of ACh greater than 60 µM occur more rapidly than solution exchange in the chamber, we first pre-applied 5 µM S8 prior to the co-application of 5 µM S8 with either 60 µM or 1 mM ACh (Figure 5B). The 60 µM net-charge responses were reduced to 28 ± 2% of controls (n = 8) and 60 µM peak currents to 21 ± 3 % controls. The 1 mM net-charge responses were reduced to 56 ± 6 % of those obtained without S8 co-application, although the S8 co-application increased the peak-current amplitudes compared to 60 µM controls from 1.78 ± 0.15 to 3.72 ± 0.81 (n = 8).
Figure 5 Inhibition of α7 ACh-evoked responses by S8. (A) Concentration-response studies of α7 net-charge responses to 60 µM ACh co-applied with increasing concentrations of S8. To confirm the stability of the ACh responses, applications of ACh plus S8 were alternated with applications of ACh alone. Data are the averages of eight cells (±SEM). See text for curve-fit values. (B) Effects of 5 µM S8 on responses to either 60 µM or 1 mM ACh. The traces shown across the top are the averaged raw data from seven cells, each normalized to the peak current of the first ACh control response shown. In order to assure that the S8 was present at 5 µM throughout the ACh-evoked responses, a 30 s pre-application was made of 5 µM S8 alone. The lower traces show averaged responses to 60 µM or 1 mM ACh alone or with the 5 µM S8 pre- and co-application. The details of the data are described in Methods.
(§1) Experiments were conducted using OpusXpress 6000A (Molecular Devices, Union City, CA, USA). Both the voltage and current electrodes were filled with 3 M KCl. Oocytes were voltage-clamped at −60 mV at room temperature (24 °C). The oocytes were bath-perfused with Ringer’s solution (115 mM NaCl, 2.5 mM KCl, 1.8 mM CaCl2, 10 mM HEPES, and 1 μM atropine, pH 7.2) at 2 mL/min for α7 receptors, or 4 mL/min for heteromeric nAChR. To evaluate the effects of experimental compounds, responses were compared to control ACh-evoked responses, defined as the average of two initial applications of ACh made before test applications. ACh control concentrations were 60 µM for α7 receptors; 100 µM for α4(3)β2(2) and α3β4 receptors; 30 µM for α4β2α6β2β3 and muscle-type (αβ1εδ) receptors; and 10 µM for α4(3)β2(2) and α4(2)β2(2)α5 receptors.
Solutions were applied from 96-well plates via disposable tips. Drug applications were 12 s in duration, followed by 181 s washout periods for α7 receptors, or 6 s in duration followed by 301 s washout periods for heteromeric nAChR. […]

α3β4 nAChR = target: T2, α3β4 nAChR (Homo sapiens, UniProt P30926+P32297); experiment: Inhibition of α3β4 100 µM ACh-evoked peak currents; assay type: cell-based; conditions: co-application with 100 µM ACh, peak currents
T2 construct: expressed in transfected cells; host or cells: Xenopus laevis oocytes (injected RNA)
Method: Although none of the other sulfonium compounds activated neuronal heteromeric receptors, several of them produced inhibition of ACh-evoked responses. Shown in Figure 7A are concentration-response studies for the compounds that were active antagonists of α3β4 nAChR (Table 3). Some compounds were also tested as antagonists of α4β2 subtypes formed with concatamers (Figure 7B).
Figure 7 Inhibition of heteromeric nAChR by sulfonium compounds. (A) Inhibition of α3β4 100 µM ACh-evoked peak currents by the co-application of the sulfonium compounds. Data are the averaged of six to eight oocytes (±SEM). To confirm the stability of the ACh responses, applications of ACh plus the sulfonium compounds were alternated with applications of ACh alone. (B) Inhibition of ACh control peak-current responses of α4-containing nAChR formed with concatamers by 100 µM of the sulfonium compounds indicated. Data are the average of six to eight oocytes (±SEM).
as §1
Solutions were applied from 96-well plates via disposable tips. Drug applications were 12 s in duration, followed by 181 s washout periods for α7 receptors, or 6 s in duration followed by 301 s washout periods for heteromeric nAChR. The responses were calculated as both peak current amplitudes and net charge, as previously described. Data were collected at 50 Hz, filtered at 20 Hz for α7 receptors or filtered at 5 Hz for heteromeric nAChR, and analyzed by Clampfit (Molecular Devices, San Jose, CA, USA) and Excel (Microsoft, Redmond, WA, USA). Data were expressed as means ± SEM from at least four oocytes for each experiment and plotted with Kaleidagraph 4.5.2 (Abelbeck Software, Reading, PA, USA). Multi-cell averages were calculated for comparisons of complex responses. Averages of the normalized data were calculated for each of the 10,322 points in each of the 206.44 s traces (acquired at 50 Hz), as well as the standard errors for those averages.

T1 sequence (P36544 23-502): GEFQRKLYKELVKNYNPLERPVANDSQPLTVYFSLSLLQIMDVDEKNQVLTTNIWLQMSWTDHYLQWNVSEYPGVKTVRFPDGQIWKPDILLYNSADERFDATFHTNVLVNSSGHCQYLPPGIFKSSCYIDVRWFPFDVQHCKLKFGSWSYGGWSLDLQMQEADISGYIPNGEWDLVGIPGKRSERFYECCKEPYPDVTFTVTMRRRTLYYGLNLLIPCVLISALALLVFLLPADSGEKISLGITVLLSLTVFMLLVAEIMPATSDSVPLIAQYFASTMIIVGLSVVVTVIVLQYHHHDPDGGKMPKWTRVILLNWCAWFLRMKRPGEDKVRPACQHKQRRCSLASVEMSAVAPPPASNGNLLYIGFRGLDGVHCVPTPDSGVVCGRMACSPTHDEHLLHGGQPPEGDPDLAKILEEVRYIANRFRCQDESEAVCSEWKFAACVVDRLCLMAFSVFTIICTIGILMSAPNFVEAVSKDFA
T2 sequence (P32297 32-505): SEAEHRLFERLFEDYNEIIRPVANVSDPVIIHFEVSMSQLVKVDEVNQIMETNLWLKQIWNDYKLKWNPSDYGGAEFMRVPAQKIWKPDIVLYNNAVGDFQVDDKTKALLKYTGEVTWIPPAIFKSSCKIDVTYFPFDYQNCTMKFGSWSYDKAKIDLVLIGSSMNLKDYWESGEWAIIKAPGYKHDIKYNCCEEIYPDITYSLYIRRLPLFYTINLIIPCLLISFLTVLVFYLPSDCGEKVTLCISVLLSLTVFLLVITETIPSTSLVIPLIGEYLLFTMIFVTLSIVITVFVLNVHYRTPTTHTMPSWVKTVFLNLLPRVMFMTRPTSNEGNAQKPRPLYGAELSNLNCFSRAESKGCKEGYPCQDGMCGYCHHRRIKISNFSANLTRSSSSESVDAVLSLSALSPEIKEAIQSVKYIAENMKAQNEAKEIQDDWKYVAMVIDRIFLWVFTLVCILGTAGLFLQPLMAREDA
T2 sequence (P30926 22-498): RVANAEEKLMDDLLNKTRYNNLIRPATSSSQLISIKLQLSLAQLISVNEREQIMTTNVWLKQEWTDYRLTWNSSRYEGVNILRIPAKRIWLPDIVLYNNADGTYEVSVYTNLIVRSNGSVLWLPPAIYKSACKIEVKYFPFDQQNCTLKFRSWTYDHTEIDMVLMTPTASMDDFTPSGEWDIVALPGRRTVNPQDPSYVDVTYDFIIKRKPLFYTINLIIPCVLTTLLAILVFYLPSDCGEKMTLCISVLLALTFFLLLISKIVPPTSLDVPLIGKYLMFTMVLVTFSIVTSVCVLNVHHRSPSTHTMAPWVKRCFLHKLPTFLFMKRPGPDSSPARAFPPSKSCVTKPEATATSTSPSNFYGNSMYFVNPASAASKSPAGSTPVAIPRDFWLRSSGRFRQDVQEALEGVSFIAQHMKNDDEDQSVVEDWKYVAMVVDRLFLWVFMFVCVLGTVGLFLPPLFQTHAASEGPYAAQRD

| Compound | activation of neuronal heteromeric receptors [1] | effect on 60 µM ACh response at 1 mM (α7 nAChR) | IC50 (α3β4 nAChR) [µM] | inhibition of responses to 60 µM ACh (α7 nAChR; compound co-applied at 100 µM, net charge) |
| --- | --- | --- | --- | --- |
| C[S+](C)C.[I-] [Compound S1, trimethylsulfonium iodide] | activates all the neuronal heteromeric receptors tested |  |  |  |
| C[S+](C)c1cc([N+](=O)[O-])ccc1O.[Br-] [Compound S10, (2-hydroxy-5-nitrophenyl)dimethylsulfonium bromide] |  | increased the amplitude of the ACh-evoked responses |  |  |
| C[S+](C)c1ccc(O)cc1 [Compound S9, (4-hydroxyphenyl)dimethylsulfonium methyl sulfate] |  | significant inhibition | 124 ± 22 | no inhibition |
